Data published in the supplement of paper PMC10307832.

Key:
Assay in all cases: relative viability (nuclei count vs DMSO), 5 days (fraction); higher = more cells survive
[1] = compound: CN1C=C(C2=CC=CC=C21)/C=C\3/C4=C(C=CC=N4)NC3=O + O=C(CCCCCCC(=O)Nc1ccccc1)NO [Vorinostat] (partner 1 µM)
How it was run: (§1)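 Lung cancer cell lines were pin-tool dosed in 1536-well plates on the day after seeding, with either a lone drug or a fixed anchor-drug dose plus five library-drug doses (not always all listed) in √10 steps. Nuclei were counted on 4× images after 5 days. Relative viability is the ratio of treated-well to vehicle-well nuclei counts, with each value a median of duplicate plates.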

[2] = compound: CC(=O)Nc1cccc(-n2c(=O)n(C3CC3)c(=O)c3c(Nc4ccc(I)cc4F)n(C)c(=O)c(C)c32)c1 [Trametinib] + Cc1nc(NC(=O)N2CCC[C@H]2C(N)=O)sc1-c1ccnc(C(C)(C)C(F)(F)F)c1 [Alpelisib] (partner 2 µM)
How it was run: as §1

[3] = compound: CC(=O)Nc1cccc(-n2c(=O)n(C3CC3)c(=O)c3c(Nc4ccc(I)cc4F)n(C)c(=O)c(C)c32)c1 [Trametinib] + CC(C)C[C@H](NC(=O)[C@H](Cc1ccccc1)NC(=O)c1cnccn1)B(O)O [Bortezomib] (partner 0.002 µM)
How it was run: as §1

[4] = compound: CN1C=C(C2=CC=CC=C21)/C=C\3/C4=C(C=CC=N4)NC3=O + Nc1nc2[nH]cc(CCc3ccc(C(=O)N[C@@H](CCC(=O)O)C(=O)O)cc3)c2c(=O)[nH]1 [Pemetrexed] (partner 0.2 µM)
How it was run: as §1

Row | Cell Line | relative viability ([1]; first compound 0.02 µM) | relative viability ([1]; first compound 0.06325 µM) | relative viability ([1]; first compound 0.2 µM) | relative viability ([1]; first compound 0.6325 µM) | relative viability ([1]; first compound 2 µM) | relative viability ([2]; first compound 0.0025 µM) | relative viability ([2]; first compound 0.007906 µM) | relative viability ([2]; first compound 0.025 µM) | relative viability ([2]; first compound 0.07906 µM) | relative viability ([2]; first compound 0.25 µM) | relative viability ([3]; first compound 0.0025 µM) | relative viability ([3]; first compound 0.007906 µM) | relative viability ([3]; first compound 0.025 µM) | relative viability ([3]; first compound 0.07906 µM) | relative viability ([3]; first compound 0.25 µM) | relative viability ([4]; first compound 0.02 µM) | relative viability ([4]; first compound 0.06325 µM) | relative viability ([4]; first compound 0.2 µM) | relative viability ([4]; first compound 0.6325 µM) | relative viability ([4]; first compound 2 µM)
1 | EMC-BAC-2 | 0.849 | 0.441 | 0.39 | 0.261 | 0.214 | 0.645 | 0.641 | 0.562 | 0.568 | 0.497 | 1.05 | 0.99 | 0.865 | 1 | 0.859 | 0.407 | 0.438 | 0.442 | 0.465 | 0.421
2 | NCI-H2087 | 0.73 | 0.603 | 0.551 | 0.753 | 0.838 | 0.705 | 0.442 | 0.371 | 0.28 | 0.266 | 0.899 | 0.669 | 0.446 | 0.327 | 0.129 | 0.671 | 0.62 | 0.622 | 0.631 | 0.656
3 | NCI-H441 | 0.807 | 0.752 | 0.833 | 0.694 | 0.793 | 0.836 | 0.659 | 0.638 | 0.533 | 0.33 | 0.474 | 0.55 | 0.72 | 0.475 | 0.17 | 0.275 | 0.241 | 0.264 | 0.285 | 0.251
4 | LXF-289 | 0.693 | 0.828 | 0.689 | 0.817 | 0.801 | 0.961 | 0.894 | 0.758 | 0.672 | 0.495 | 0.872 | 0.812 | 0.757 | 0.703 | 0.459 | 0.925 | 0.913 | 0.928 | 0.881 | 0.974
5 | NCI-H661 | 0.853 | 0.763 | 0.835 | 0.927 | 0.775 | 0.607 | 0.654 | 0.411 | 0.257 | 0.264 | 0.82 | 0.689 | 0.728 | 0.534 | 0.54 | 1.02 | 0.902 | 0.89 | 0.985 | 0.972
6 | PC-3 [JPC-3] | 0.831 | 0.798 | 0.75 | 0.612 | 0.589 | 0.998 | 0.968 | 0.864 | 0.806 | 0.511 | 0.862 | 0.815 | 0.837 | 0.716 | 0.262 | 0.846 | 1.05 | 1.07 | 0.8 | 0.79
7 | HCC-366 | 0.239 | 0.32 | 0.28 | 0.226 | 0.174 | 0.214 | 0.241 | 0.182 | 0.143 | 0.0782 | 0.962 | 0.897 | 0.902 | 0.645 | 0.172 | 0.148 | 0.142 | 0.196 | 0.155 | 0.133
8 | NCI-H1651 | 0.656 | 0.573 | 0.571 | 0.563 | 0.537 | 0.901 | 0.864 | 0.775 | 0.597 | 0.66 | 0.967 | 0.9 | 0.801 | 0.83 | 0.43 | 0.651 | 0.579 | 0.574 | 0.648 | 0.644
9 | NCI-H1355 | 0.581 | 0.581 | 0.653 | 0.513 | 0.534 | 0.68 | 0.627 | 0.356 | 0.388 | 0.352 | 0.981 | 1.04 | 0.554 | 0.847 | 0.266 | 0.885 | 0.924 | 0.99 | 0.916 | 0.851
10 | LC-2-ad | 0.67 | 0.661 | 0.666 | 0.706 | 0.669 | 0.864 | 0.452 | 0.662 | 0.408 | 0.233 | 0.999 | 0.898 | 0.928 | 0.713 | 0.443 | 0.287 | 0.255 | 0.26 | 0.271 | 0.285
11 | HCC-827 | 0.721 | 0.87 |  | 0.703 | 0.714 | 1.01 | 0.753 | 0.699 | 0.591 | 0.399 | 0.943 | 0.989 | 0.974 | 0.92 | 0.748 | 0.227 | 0.28 |  | 0.247 | 0.258
